The values that follow come from ChEMBL document CHEMBL4507273 (2021).

Test [1] addresses Tyrosine-protein kinase SYK (Homo sapiens) (UniProt P43405). Description: Syk(h) Eurofins Kinase panel. As to conditions: Compound concentration 1.0 uM.
Test [2] concerns the target D(1A) dopamine receptor (Homo sapiens, UniProt P21728). As to conditions: Compound concentration 10.0 uM.
Test [3] concerns the target T1, Alpha-2C adrenergic receptor (Homo sapiens) (UniProt P18825).
T1 sequence (whole entry): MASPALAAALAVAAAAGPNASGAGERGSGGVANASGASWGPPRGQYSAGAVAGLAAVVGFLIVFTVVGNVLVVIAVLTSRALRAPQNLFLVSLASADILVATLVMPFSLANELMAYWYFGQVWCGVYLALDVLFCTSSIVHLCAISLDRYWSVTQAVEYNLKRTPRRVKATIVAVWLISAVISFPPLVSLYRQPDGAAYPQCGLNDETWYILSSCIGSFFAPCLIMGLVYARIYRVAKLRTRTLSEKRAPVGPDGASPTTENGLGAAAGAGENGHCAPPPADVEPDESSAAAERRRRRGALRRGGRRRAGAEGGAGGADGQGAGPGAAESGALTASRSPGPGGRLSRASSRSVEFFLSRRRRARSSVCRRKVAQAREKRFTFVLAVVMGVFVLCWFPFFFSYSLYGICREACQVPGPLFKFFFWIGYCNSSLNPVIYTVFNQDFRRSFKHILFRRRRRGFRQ
As to conditions: Compound concentration 10.0 uM.

For test [4], the target named is 5-hydroxytryptamine receptor 2A (Homo sapiens, UniProt P28223). As to conditions: Compound concentration 10.0 uM.
In test [5] the target is Serine/threonine-protein kinase Chk2 (Homo sapiens) (UniProt O96017). As to the kind of experiment: CHK2(h) Eurofins Kinase panel. As to conditions: Compound concentration 1.0 uM.
For test [6], the target named is Vascular endothelial growth factor receptor 1 (Homo sapiens) (UniProt P17948). As to the kind of experiment: Flt1(h) Eurofins Kinase panel. The conditions noted are these: Compound concentration 1.0 uM.
The target of test [7] is Tyrosine-protein kinase receptor UFO (Homo sapiens) (UniProt P30530). Description: Axl(h) Eurofins Kinase panel. As to conditions: Compound concentration 1.0 uM.
Sequence of Tyrosine-protein kinase receptor UFO (Homo sapiens) (P30530 whole entry): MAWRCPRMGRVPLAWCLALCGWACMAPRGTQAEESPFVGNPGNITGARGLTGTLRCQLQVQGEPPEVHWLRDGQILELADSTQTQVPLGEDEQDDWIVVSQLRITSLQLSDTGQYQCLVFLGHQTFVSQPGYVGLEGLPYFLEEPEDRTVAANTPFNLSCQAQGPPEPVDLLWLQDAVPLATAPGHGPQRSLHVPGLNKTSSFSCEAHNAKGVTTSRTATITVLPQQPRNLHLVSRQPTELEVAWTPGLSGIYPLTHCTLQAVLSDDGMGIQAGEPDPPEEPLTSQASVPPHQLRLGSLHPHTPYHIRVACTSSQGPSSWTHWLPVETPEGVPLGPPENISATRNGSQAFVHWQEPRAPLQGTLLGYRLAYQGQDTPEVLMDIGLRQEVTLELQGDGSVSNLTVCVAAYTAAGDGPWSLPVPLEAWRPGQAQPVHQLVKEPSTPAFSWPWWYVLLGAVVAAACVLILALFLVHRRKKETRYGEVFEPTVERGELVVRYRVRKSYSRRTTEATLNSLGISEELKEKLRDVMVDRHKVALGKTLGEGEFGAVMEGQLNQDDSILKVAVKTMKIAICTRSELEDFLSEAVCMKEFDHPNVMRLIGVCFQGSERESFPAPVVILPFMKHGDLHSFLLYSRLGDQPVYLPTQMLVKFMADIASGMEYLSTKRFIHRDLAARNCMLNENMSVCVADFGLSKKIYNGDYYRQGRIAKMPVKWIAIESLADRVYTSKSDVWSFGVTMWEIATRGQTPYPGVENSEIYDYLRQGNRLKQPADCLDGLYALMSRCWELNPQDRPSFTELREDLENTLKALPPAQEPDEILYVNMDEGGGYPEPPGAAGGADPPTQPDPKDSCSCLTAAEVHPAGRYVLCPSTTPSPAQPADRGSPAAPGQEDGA
In test [8] the target is Eukaryotic translation initiation factor 2-alpha kinase 3 (Homo sapiens) (UniProt Q9NZJ5). Description: PEK(h) Eurofins Kinase panel. As to conditions: Compound concentration 1.0 uM.
Test [9] deals with D(3) dopamine receptor (Homo sapiens, UniProt P35462). The conditions noted are these: Compound concentration 10.0 uM.
The target of test [10] is Insulin-like growth factor 1 receptor (Homo sapiens) (UniProt P08069). As to the kind of experiment: IGF-1R(h) Eurofins Kinase panel. As to conditions: Compound concentration 1.0 uM.
Test [11] concerns the target T2, D(2) dopamine receptor (Homo sapiens, UniProt P14416). As to conditions: Compound concentration 10.0 uM.
The target of test [12] is Dual specificity tyrosine-phosphorylation-regulated kinase 1A (Homo sapiens) (UniProt Q13627). As to the kind of experiment: DYRK1A(h) Eurofins Kinase panel. The conditions noted are these: Compound concentration 1.0 uM.
Test [13] concerns the target 5-hydroxytryptamine receptor 2B (Homo sapiens, UniProt P41595). The conditions noted are these: Compound concentration 10.0 uM.
Test [14] addresses T3, Alpha-2A adrenergic receptor (Homo sapiens) (UniProt P08913).
T3 sequence (whole entry): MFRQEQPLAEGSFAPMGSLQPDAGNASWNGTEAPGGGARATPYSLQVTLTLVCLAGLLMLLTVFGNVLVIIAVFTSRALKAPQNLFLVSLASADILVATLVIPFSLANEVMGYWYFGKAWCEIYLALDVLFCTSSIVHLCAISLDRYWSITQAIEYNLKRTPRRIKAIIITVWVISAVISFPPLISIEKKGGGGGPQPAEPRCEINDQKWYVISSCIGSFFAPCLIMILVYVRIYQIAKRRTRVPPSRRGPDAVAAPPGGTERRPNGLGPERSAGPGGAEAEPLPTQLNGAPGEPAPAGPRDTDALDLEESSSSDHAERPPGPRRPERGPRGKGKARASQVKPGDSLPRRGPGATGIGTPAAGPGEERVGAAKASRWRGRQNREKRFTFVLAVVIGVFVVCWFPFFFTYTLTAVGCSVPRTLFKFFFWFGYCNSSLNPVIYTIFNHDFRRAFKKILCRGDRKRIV
As to conditions: Compound concentration 10.0 uM.

Test [15] is filed under the species Rattus norvegicus. The conditions noted are these: Compound concentration 10.0 uM.
Test [16] has as its target Casein kinase II subunit alpha' (Homo sapiens) (UniProt P19784). Description: CK2alpha2(h) Eurofins Kinase panel. The conditions noted are these: Compound concentration 1.0 uM.
Test [17] addresses Serine/threonine-protein kinase 26 (Homo sapiens) (UniProt Q9P289). As to the kind of experiment: MST4(h) Eurofins Kinase panel. As to conditions: Compound concentration 1.0 uM.
The target in test [18] is Sodium-dependent noradrenaline transporter (Homo sapiens, UniProt P23975). The conditions noted are these: Compound concentration 10.0 uM.
Sequence of Sodium-dependent noradrenaline transporter (P23975 whole entry): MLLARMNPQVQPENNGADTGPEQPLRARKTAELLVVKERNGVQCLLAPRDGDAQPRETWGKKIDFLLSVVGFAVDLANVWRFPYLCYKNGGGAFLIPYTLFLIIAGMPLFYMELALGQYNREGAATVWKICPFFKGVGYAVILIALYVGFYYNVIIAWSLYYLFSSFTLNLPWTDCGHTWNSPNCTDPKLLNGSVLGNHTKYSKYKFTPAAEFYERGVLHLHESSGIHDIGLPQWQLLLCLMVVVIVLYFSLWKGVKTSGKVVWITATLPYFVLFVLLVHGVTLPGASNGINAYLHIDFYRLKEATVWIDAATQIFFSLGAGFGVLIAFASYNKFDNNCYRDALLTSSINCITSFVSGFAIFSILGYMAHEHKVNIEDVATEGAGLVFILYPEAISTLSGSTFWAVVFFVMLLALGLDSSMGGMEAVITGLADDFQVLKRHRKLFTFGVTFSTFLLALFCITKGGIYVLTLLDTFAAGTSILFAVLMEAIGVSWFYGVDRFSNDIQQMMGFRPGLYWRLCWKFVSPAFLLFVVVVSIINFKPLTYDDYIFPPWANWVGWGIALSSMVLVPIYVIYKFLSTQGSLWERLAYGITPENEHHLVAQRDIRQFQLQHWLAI
Test [19] concerns the target ATR/ATRIP (Homo sapiens) (UniProt Q13535+Q8WXE1). Description: ATR/ATRIP(h) Eurofins Kinase panel. The conditions noted are these: Compound concentration 1.0 uM. Type of test: protein-complex assay.
Test [20] concerns the target [Pyruvate dehydrogenase (acetyl-transferring)] kinase isozyme 2, mitochondrial (Homo sapiens) (UniProt Q15119). As to the kind of experiment: PDHK2(h) Eurofins Kinase panel. As to conditions: Compound concentration 1.0 uM.
For test [21], the target named is Sodium-dependent dopamine transporter (Homo sapiens, UniProt Q01959). The conditions noted are these: Compound concentration 10.0 uM.
For test [22], the species on record is Rattus norvegicus. The conditions noted are these: Compound concentration 10.0 uM. This is another data set of the same source.
For test [23], the target named is PAS domain-containing serine/threonine-protein kinase (Homo sapiens) (UniProt Q96RG2). As to the kind of experiment: PASK(h) Eurofins Kinase panel. The conditions noted are these: Compound concentration 1.0 uM.
Sequence of PAS domain-containing serine/threonine-protein kinase (Homo sapiens) (Q96RG2 whole entry, the tested form may be a part): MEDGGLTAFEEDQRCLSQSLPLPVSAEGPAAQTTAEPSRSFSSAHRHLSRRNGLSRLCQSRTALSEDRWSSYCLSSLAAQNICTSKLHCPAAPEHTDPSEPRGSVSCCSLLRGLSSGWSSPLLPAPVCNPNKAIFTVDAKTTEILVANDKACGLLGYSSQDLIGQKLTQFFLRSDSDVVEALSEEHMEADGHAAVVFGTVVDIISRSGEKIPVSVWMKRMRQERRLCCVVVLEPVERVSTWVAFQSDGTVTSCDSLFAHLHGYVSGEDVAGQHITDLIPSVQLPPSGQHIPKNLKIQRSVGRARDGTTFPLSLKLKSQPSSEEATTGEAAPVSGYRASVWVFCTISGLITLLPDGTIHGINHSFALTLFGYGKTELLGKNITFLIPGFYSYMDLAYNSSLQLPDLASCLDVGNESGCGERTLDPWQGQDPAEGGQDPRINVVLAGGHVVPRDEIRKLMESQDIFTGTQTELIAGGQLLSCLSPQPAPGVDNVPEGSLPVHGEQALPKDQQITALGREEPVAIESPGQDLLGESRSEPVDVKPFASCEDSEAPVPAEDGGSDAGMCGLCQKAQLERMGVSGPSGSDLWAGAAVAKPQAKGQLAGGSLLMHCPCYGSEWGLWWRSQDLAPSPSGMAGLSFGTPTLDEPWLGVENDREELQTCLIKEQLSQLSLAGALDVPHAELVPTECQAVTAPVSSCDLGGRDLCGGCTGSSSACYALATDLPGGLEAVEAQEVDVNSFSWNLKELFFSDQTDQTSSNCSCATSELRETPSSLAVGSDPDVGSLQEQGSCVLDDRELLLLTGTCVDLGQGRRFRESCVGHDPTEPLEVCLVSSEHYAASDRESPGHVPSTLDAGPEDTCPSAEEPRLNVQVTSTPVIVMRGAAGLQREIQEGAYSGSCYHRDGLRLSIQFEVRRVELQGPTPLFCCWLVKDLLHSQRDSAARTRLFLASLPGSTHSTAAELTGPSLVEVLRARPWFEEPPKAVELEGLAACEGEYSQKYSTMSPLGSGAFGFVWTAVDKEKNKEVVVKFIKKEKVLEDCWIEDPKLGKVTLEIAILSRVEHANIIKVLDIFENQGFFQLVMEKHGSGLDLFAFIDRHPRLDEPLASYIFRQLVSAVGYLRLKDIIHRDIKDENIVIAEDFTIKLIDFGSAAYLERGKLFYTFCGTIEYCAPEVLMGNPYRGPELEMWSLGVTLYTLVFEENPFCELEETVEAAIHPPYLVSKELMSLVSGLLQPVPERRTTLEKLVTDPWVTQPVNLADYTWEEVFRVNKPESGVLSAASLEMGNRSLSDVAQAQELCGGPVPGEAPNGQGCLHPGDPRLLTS
The target in test [24] is Sodium-dependent serotonin transporter (Homo sapiens, UniProt P31645). Description: GPCRScan assay: inhibition of SERT. Details: radioligand conc. used [nm] 1.5 – 2.0, parental cells stable HEK.
In test [25] the target is Delta-type opioid receptor (Homo sapiens) (UniProt P41143). The conditions noted are these: Compound concentration 10.0 uM.
Sequence of Delta-type opioid receptor (Homo sapiens) (P41143 whole entry): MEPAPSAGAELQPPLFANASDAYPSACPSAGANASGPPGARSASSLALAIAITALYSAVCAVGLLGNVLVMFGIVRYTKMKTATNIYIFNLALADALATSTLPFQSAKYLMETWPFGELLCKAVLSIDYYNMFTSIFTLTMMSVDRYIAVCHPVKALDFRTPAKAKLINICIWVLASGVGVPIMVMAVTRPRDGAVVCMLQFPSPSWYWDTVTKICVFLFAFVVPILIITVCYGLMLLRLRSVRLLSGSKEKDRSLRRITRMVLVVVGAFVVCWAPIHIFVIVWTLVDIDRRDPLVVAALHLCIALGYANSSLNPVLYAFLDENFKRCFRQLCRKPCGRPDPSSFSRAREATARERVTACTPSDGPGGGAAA
In test [26] the target is Muscarinic acetylcholine receptor M4 (Homo sapiens, UniProt P08173). Description: GPCRScan assay: inhibition of M4. Further details: radioligand conc. used [nm] 0.3 – 1.0, parental cells stable CHO.
Sequence of Muscarinic acetylcholine receptor M4 (P08173 whole entry): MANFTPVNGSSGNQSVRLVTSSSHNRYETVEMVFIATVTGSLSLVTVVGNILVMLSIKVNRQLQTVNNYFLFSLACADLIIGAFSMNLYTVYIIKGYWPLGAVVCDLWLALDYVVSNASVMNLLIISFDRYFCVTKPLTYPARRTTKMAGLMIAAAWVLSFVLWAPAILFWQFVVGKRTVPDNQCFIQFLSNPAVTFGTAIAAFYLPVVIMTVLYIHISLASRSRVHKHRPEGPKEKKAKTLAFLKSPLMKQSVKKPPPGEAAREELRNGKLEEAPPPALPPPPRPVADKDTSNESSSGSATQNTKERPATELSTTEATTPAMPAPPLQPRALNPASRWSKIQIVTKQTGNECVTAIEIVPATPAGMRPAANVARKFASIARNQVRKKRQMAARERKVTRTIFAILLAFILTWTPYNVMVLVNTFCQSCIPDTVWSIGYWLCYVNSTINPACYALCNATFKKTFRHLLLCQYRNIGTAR
Test [27] deals with Histamine H1 receptor (Homo sapiens, UniProt P35367). As to the kind of experiment: GPCRScan assay: inhibition of H1. Further details: radioligand conc. used [nm] 0.6 – 2.0, parental cells stable HEK.
Sequence of Histamine H1 receptor (P35367 whole entry): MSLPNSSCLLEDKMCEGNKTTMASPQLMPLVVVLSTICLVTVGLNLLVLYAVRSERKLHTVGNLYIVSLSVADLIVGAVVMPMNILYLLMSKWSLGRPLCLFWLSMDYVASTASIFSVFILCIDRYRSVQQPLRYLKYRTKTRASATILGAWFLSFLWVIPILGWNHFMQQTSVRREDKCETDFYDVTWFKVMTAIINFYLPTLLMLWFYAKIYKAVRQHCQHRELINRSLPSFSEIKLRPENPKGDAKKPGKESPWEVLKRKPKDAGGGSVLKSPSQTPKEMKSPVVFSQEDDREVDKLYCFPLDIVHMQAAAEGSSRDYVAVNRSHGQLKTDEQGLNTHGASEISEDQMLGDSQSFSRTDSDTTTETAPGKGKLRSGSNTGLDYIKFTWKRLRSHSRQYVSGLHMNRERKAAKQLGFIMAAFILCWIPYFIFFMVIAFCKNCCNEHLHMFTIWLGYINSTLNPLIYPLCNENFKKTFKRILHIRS
For test [28], the target named is T2, D(2) dopamine receptor. Description: GPCRScan assay: inhibition of D2. Further details: radioligand conc. used [nm] 0.4 – 1.0, parental cells stable fibroblast.
Test [29] deals with Kappa-type opioid receptor (Homo sapiens, UniProt P41145). Description: GPCRScan assay: inhibition of KOR. Details: radioligand conc. used [nm] 0.6 – 1.2, parental cells stable HEK.
Sequence of Kappa-type opioid receptor (P41145 whole entry): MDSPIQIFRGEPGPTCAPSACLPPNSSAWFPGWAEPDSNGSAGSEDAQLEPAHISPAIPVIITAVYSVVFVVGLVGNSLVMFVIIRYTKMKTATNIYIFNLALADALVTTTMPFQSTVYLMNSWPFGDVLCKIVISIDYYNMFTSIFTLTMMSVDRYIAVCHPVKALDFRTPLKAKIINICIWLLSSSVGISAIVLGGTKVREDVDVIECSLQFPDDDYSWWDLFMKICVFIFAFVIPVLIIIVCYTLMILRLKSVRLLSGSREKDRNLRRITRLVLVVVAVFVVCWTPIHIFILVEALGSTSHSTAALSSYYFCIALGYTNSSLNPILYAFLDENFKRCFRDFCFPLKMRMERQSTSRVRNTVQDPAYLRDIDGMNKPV

pKi: −log10 of the molar value.

T2 sequence (P14416 whole entry): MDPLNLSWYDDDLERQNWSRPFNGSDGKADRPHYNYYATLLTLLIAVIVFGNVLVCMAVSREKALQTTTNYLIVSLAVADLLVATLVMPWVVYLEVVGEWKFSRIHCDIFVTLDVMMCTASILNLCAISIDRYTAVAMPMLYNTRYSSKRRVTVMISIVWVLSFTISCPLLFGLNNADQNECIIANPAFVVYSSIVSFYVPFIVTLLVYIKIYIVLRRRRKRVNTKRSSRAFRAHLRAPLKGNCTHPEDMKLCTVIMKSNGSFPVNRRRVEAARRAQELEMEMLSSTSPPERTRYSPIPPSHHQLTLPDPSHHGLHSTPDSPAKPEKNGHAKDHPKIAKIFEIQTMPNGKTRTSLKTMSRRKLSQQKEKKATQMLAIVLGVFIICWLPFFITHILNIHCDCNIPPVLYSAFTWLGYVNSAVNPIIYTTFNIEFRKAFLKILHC

One may read the inhibition as the drop in the measured response relative to a control, in per cent. For the molecule `CNCc1ccccc1-c1csc([C@@H](C)Nc2nc(C)nc3cc(OC)c(OC)cc23)c1` [BAY-293], the % residual kinase activity in test [1] was 79%; in [5], 80%; in test [6], 88%; in test [7] it was 88%; in test [8] it was 87%; in test [10] it was 74%. Moreover, the % residual kinase activity was 68% in [12]; 67% in [16]; 88% in test [17]; 88% in test [19]; 85% in [20]; 84% in [23]. Further, the inhibition is 85% in [2]; 99% in test [3]; 110% in test [4]; 88% in test [9]; 71% in [11]; 100% in test [13]. Also, the inhibition in test [14] is 99%; in [15], 13.1%; in test [18] it was 86%; in [21] it was 90%; in test [22], 71%.
As a reminder, the pKi is −log10 of the Ki, conventionally taken in molar units. Take `CNCc1ccccc1-c1csc([C@H](C)Nc2nc(C)nc3cc(OC)c(OC)cc23)c1` [BAY-294]: the negative logarithm of the Ki (pKi) in [24] was 5.37; in test [26] (read-out: Ki) it was 6.52; in test [27] (read-out: Ki), 5.86; in test [28] (read-out: Ki), 5.63; in [29] (read-out: Ki), 6.08. Further, in [25], the inhibition was 10.5%. The Ki in [26] (read-out: pKi (converted)) was 292 nM; in test [27] (read-out: pKi (converted)) it was 1350 nM; in test [28] (read-out: pKi (converted)) it was 2000 nM; in [29] (read-out: pKi (converted)), 822 nM.
